Tests used:
Assay type in all cases: cell-based, human
HAECs [1] = assay: Tube formation assay in Matrigel; details: LPC (30 μm) with or without caspase-1 inhibitor (10 μm), Matrigel 16 h
Method: FIG. 18, comprising FIG. 18A and FIG. 18B, depicts experimental results showing tube formation, as an in vitro model of angiogenesis, is improved after caspase-1 inhibition in LPC-treated cells. FIG. 18A depicts experiments where HAECs were treated with LPC (30 μm) and caspase-1 inhibitor (10 μm) for 6 h. After the treatment, the cells were incubated in the Matrigel for 16 h for the analysis of tube formation. FIG. 18B depicts bar graph showing the increases of total master segment lengths after the inhibition of caspase-1 in LPC-treated HAECs.*, p<0.05.
The Matrigel matrix (Bedford, Mass.) was used to coat the 96-well plates. Human aortic endothelial cells were cultured. The cells were treated with caspase-1 inhibitor (Anaspec, Fremont, Calif.) and proatherogenic stimulus LPC for 24 h. HAECs were harvested and suspended. Cell concentration was determined and added to each Matrigel-coated well and incubated for 16-18 h. Images were collected using the inverted microscope.

caspase-1 = assay: Caspase-1 activity assay (FAM-YVAD-FMK, flow cytometry) in HAECs; details: 6 h, oxLDL (100 μM), LPA (30 μM), LPC (30 μM)
Method: (§1) Active caspase-1 level was determined with APO LOGIX kit (Cell Tech., Mountain View, Calif.). The kit contains a carboxyfluorescein (FAM) [Excitation/Emission (nm):490/520]-labeled peptide fluoromethyl ketone (FMK) caspase-1 inhibitor (FAM-YVAD-FMK), which irreversibly binds to active caspase-1. All procedures were performed according to the manufacturer's instruction. Briefly, HAECs (≤passage 9) were cultured in 6-well plates and serum starved overnight to quiescent the cells before treatment. Next day, HAECs were treated with indicated stimuli for 6 hr. Cells were then digested by trypsin-EDTA and suspended at 1×10^6 cells/ml. 150 μl of cell suspension were incubated at 37° C. with 1× FAM-YVAD-FMK for 1 hour then washed with 1× washing buffer. Unfixed caspase-1 stained cells were then incubated with 7-aminoactinomycin D (7-AAD; cell membrane integrity marker) (BD Pharmingen, San Diego, Calif.) for no more than 10 min before analysis. The Calibur flow cytometer (BD Biosciences, San Jose, Calif.) was used to determine caspase-1 active (Caspase-1^+) and 7-AAD^+ cells. Data were analyzed with the FlowJo software (Tree Star, Ashland, Oreg.).
Active caspase-1 levels were determined with an APO LOGIX kit (Cell Technology, Mountain View, Calif.). The kit contained a carboxyfluorescein (FAM) (excitation/emission (nm): 490/520)-labeled peptide fluoromethyl ketone (FMK) caspase-1 inhibitor (FAM-YVAD-FMK), which irreversibly binds to active caspase-1. The procedures were performed according to the manufacturer's instructions. HAECs were cultured in 6-well dishes and serum-starved overnight to ensure quiescence of the cells before treatment. The next day, HAECs were treated with the indicated stimuli for 6 h. Cells were harvested and suspended at 1×10^6 cells/ml. The cell suspension (150 μl) was incubated in 37° C. with 1× FAM-YVAD-FMK for 1 h. After being washed with 1× washing buffer, the cells were fixed with fixative buffer and stored in 4° C. for up to 24 h. To determine the cell membrane integrity, the unfixed cells were stained with 7-AAD (Pharmingen) (0.25 μg/test) and incubated for no more than 10 min before analysis.
(§2) All flow cytometric data were analyzed by using the FlowJo software (Tree Star, Ashland, Oreg.). The uncompensated data were collected from the flow cytometer (either FACSCalibur flow cytometer or LSRII flow cytometer; BD Biosciences). Forward and side scatter gates were used to select live cell populations from clumps and debris. The positive gating was determined by its matched IgG control, and single staining was used to determine the compensation parameter. Different gates were established to analyze the data according to cell size as described in our figures.

VEGFR-2 = VEGFR-2 expression in LPC-treated HAECs by flow cytometry; details: LPC (30 μM) 6 h; caspase-1 inhibitor or Sirt-1 activator 10 μM pretreatment where named
Method: FIG. 17, comprising FIG. 17A through FIG. 17D, depicts experimental results showing inhibition of caspase-1 activation and activation of Sirt-1 increase VEGFR-2 expression. FIG. 17A depicts experiments showing caspase-1 depletion increases VEGFR-2 expression. A microarray data-mining analysis was performed by analyzing the indicated microarray dataset deposited in the National Institutes of Health NCBI-Geo-profile database. The gene expression value was determined based on the relative threshold cycle on the database. […] In addition, depletion of caspase-1 slightly increases the expressions of the caspase-1-cleaving substrates cytokines IL-1β and IL-18. […] FIG. 17B depicts caspase-1 inhibition and Sirt-1 activation increase the expression of VEGFR-2 after LPC treatment in HAECs. HAECs pretreated with the caspase-1 inhibitor (10 μM) and Sirt-1 activator (10 μM) and then treated with LPC (30 μM) for 6 h have an increased expression of VEGFR-2. FIG. 17C depicts three cell size gates were established, small, medium, and large according to FSC (y axis); and VEGFR-2 expression (x axis) was measured in those gated cells to analyze differential VEGFR-2 expressions according to the cell size after treatments with LPC (30 μM), caspase-1 inhibitor (10 μm), and Sirt-1 activator (10 μm) for 6 h. […] FIG. 17D depicts bar graphs showing the quantitation data of VEGFR-2 expressions. *, p<0.05.
as §2

HAECs [2] = assay: Caspase-1/7-AAD co-staining for pyroptosis in HAECs
Method: FIG. 7, comprising FIG. 7A through FIG. 7D, depicts experimental results showing Oxidized low-density lipoprotein (oxLDL) and its components induce caspase-1 (casp-1) activation in human aortic endothelial cells (HAECs) via a reactive oxygen species (ROS)-mediated p-athway. FIG. 7A depicts pyroptotic cell death in HAECs caused by activation of casp-1 induced by oxLDL and its components. HAECs were cultured and treated with low-density lipoprotein (LDL; 100 μg/mL), oxLDL (100 μg/mL), oxLDL-derivatives lysophosphatidic acid (LPA, 100 μM), or lysophosphatidylcholine (LPC, 15 μM) as indicated for 6 hours. Casp-1 activity was determined by a commercial kit, and 7-aminoactinomycin D (7-AAD) fluorescence dye was used to determine the cell membrane integrity. Casp-1^+/7-AAD^+ cells were gated as pyrototic cells (Q3), casp-1^+ single positive cells (Q2) were gated as inflammatory cells, and 7-AAD^+ single positive cells (Q4) were gated as necrotic cells. FIG. 7B depicts ROS levels in pyroptotic cells. ROS levels were determined by dihydroethidium (DHE) fluorescence dye staining, and the mean fluorescence intensity (MFI) of DHE^+ cell fraction was determined. […] Allopurinol (1 mmol/L) and Apocynin (100 μM) were added 1 hour before oxLDL treatment. HAECs were then treated with oxLDL (100 μg/mL) for 6 hours and stained for caspase-1 activity. FIG. 7D depicts mRNA upregulation of inflammasome components, including NLRP1 (Nod-like receptor protein 1), NLRP3 (Nod-like receptor 3), PYCARD (or ASC, inflammasome adaptor apoptosis-associated speck-like protein containing a CARD), caspase-1, and IL-1β (interleukin-1β) in HAECs treated with oxLDL. Data are expressed as mean±SE. *P<0.05, changes with statistical significance.
as §1
Active caspase-1 levels were determined with an APO LOGIX kit (Cell Technology, Mountain View, Calif.). The kit contained a carboxyfluorescein (FAM) (excitation/emission (nm): 490/520)-labeled peptide fluoromethyl ketone (FMK) caspase-1 inhibitor (FAM-YVAD-FMK), which irreversibly binds to active caspase-1. The procedures were performed according to the manufacturer's instructions. HAECs were cultured in 6-well dishes and serum-starved overnight to ensure quiescence of the cells before treatment. The next day, HAECs were treated with the indicated stimuli for 6 h. Cells were harvested and suspended at 1×10^6 cells/ml. […]

Question: How did the “total master segment length of tube formation” value (HAECs [1]) turn out when `CCCCCCCCCCCCCCCC(=O)OC[C@@H](O)COP(=O)([O-])OCC[N+](C)(C)C` [LPC, 1-hexadecanoyl-sn-glycerol-3-phosphorylcholine] was run?
Answer: 317 μm

Question: What about the “caspase-1 activation in larger size of HAECs” value (caspase-1; large FSC gate) of the same compound?
Answer: 52.8%

Question: And the “caspase-1 activation in smaller size of HAECs” value (caspase-1; small FSC gate)?
Answer: 38.2%

Question: And the “VEGFR-2 expression in the larger size of HAECs” value (VEGFR-2)?
Answer: 34.3%

Question: What about the “VEGFR-2 expression in the medium size of HAECs” value (VEGFR-2) of the same compound?
Answer: 22.1%

Question: And the “VEGFR-2 expression in the smaller size of HAECs” value (VEGFR-2)?
Answer: 11.3%

Question: And the “induction of inflammation, pyroptosis and necrosis (caspase-1/7-AAD gating)” value (HAECs [2]; HAECs, 6-hour stimulation, oxLDL 100 μg/mL, LPA 100 μM, LPC 15 μM)?
Answer: induced inflammation, inflammatory cell death (pyroptosis), and necrosis

Question: What about the “7-AAD+ pyroptosis in large size of caspase-1(+) HAECs” value (HAECs [2]; LPC-treated HAECs) of the same compound?
Answer: 9.93%

Question: And the “7-AAD+ pyroptosis in medium size of caspase-1(+) HAECs” value (HAECs [2]; LPC-treated HAECs)?
Answer: 20.17%

Question: What about the “7-AAD+ pyroptosis in smaller size of caspase-1(+) HAECs” value (HAECs [2]; LPC-treated HAECs) of the same compound?
Answer: 38.77%

From patent US10751396B2, “Early hyperlipidemia promotes endothelial activation via a caspase-1-sirtuin 1 pathway” (Temple University—Of The Commonwealth System of Higher …, priority 2015, dated 2020)
